Experimental findings from US20110112299A1, “TETRACYCLIC COMPOUND” (KYOWA HAKKO KIRIN CO., LTD., priority 2008, published 2011) are described below.

Experiment [1] has as its system transcription-promoting activity via the glucocorticoid receptor (A549/MMTV-LTR cells). It counts as cell-based. The settings on record: at a concentration of 300 nmol/L; relative to dexamethasone. How it is done:
A pGL4.14 plasmid (Promega, product number: AY864928) having a cloned MMTV-LTR fragment upstream of the luciferase gene (−200 to +100 relative to the transcription initiation site) was introduced into A549 cells, and the obtained strain which is constitutively resistant to a selective antibiotic hygromycin B (A549/MMTV-LTR) was used for evaluation. The A549/MMTV-LTR cells were transferred to a 96-well plate (25000 cells/well) and were cultured overnight. […] Next, 20 μL of the test compound diluted to 5-fold of the desired concentration with F-12 medium or 20 μL of 4 μmol/L dexamethasone was added thereto, and the mixture was incubated under 5% CO2 at 37° C. for 6 hours. To each well, 50 μL of a luminescence reagent (Promega, product number: E2550 or E2650) was added, and the mixture was stirred to dissolve the cells, and the luciferase activity was measured by a plate reader (PerkinElmer, TopCount).
MMTV activity (%)=100×(luminescence amount in the presence of the compound−luminescence amount in the absence of the compound)/(luminescence amount in the presence of dexamethasone−luminescence amount in the absence of the compound)

For experiment [2], the target named is T1, recombinant human glucocorticoid receptor (Homo sapiens, UniProt P04150).
T1 construct: purchased Panvera/Invitrogen P2812 (kit P2893)
T1 sequence (P04150 1-777): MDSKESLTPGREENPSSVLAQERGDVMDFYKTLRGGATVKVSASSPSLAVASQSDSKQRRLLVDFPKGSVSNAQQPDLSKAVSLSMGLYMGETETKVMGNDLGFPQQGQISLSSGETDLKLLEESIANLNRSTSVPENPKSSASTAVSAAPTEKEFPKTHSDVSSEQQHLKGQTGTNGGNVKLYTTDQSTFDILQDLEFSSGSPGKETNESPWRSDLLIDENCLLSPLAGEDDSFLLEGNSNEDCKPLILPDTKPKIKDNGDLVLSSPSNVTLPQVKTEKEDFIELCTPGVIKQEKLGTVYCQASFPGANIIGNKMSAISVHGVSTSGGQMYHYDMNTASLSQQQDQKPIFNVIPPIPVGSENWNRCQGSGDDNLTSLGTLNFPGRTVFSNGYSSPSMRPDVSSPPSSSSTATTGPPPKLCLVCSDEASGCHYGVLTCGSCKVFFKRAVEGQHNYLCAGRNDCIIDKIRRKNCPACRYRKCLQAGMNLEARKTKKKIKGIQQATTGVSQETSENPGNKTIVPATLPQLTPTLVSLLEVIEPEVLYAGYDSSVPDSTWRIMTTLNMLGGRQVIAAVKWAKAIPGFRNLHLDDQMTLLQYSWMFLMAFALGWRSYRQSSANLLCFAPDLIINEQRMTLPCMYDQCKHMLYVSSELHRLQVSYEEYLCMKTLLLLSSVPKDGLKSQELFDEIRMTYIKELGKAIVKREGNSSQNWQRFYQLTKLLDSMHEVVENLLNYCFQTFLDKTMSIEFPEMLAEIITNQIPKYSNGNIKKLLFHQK
In words: Human glucocorticoid receptor assay (2) (fluorescence polarization, Test Example 5). It counts as binding. The settings on record: for selectivity for human glucocorticoid receptor over progesterone receptor: from the results of Test Examples 5 and 6. How it is done: In this assay, a fluorescence polarization assay kit (Panvera/Invitrogen, product number: P2893) was used. The recombinant human glucocorticoid receptor (product number: P2812), the Fluoromore (trademark)-labeled dexamethasone (GS Green, product number: P2813), the stabilizing peptide solution (product number: P2815), and the basic buffer solution (product number: P2814) which were used in the assay kit had been stored at −80° C. until used. A buffer solution for the assay was prepared by adding the basic buffer solution (10 fold dilution), the stabilizing peptide solution (10 fold dilution), and 1 mol/L DTT (dithiothreitol) (1000 fold dilution to give a final concentration of 1 mmol/L).
The assay was performed as follows. The test compound was diluted to 2-fold of the desired concentration with the buffer solution for the assay, and 16 μL of that was added to each well. Next, the Fluoromore (trademark)-labeled dexamethasone was diluted with the buffer solution for the assay so as to be 4 nmol/L, and 8 μL of that was added to each well. Further, the recombinant human glucocorticoid receptor was diluted with the buffer solution for the assay so as to be 16 nmol/L, and 8 μL of that was added to each well. After stirring the mixture, the mixture was incubated under a light-shielded condition at room temperature for 2 hours or more. The fluorescence polarization value of each well was measured using a plate reader (PerkinElmer, Fusion or Envision). To a negative control group, the compound was not added. To a positive control group, dexamethasone was added so as to give a final concentration of 1 μmol/L. The glucocorticoid receptor binding inhibitory rate (%) was calculated by the following formula.
Glucocorticoid receptor binding inhibitory rate (%)=100×[1−(fluorescence polarization value of test compound solution−fluorescence polarization value of positive control solution)/(fluorescence polarization value of negative control solution−fluorescence polarization value of positive control solution)]
For orientation: Polarisation of emitted light reports the rotation of a fluorescent probe.

For experiment [3], the system named is IL-1β induced IL-6 production (A549 cells). Put plainly: Inhibition assay for IL-1β induced IL-6 production in A549 cells (Test Example 3). It counts as cell-based, human. The note with it: Homo sapiens, at a concentration of 100 nmol/L, IL-1β stimulation, relative to dexamethasone, read-out: IL-6 production inhibitory activity. How it is done:
A549 cells cultured in F-12 medium supplemented with 10% bovine serum for 3 to 5 days were transferred to a 96-well plate (50000 cells/well) and then were cultured overnight. […] After the medium was removed by suction, 60 μL of F-12 medium was added to each well, and 20 μL of the test compound diluted to 5-fold of the desired concentration with F-12 medium or 20 μL of 4 μmol/L dexamethasone was added thereto. The test compound and the dexamethasone used here were prepared beforehand by dissolving in dimethyl sulfoxide (DMSO) and diluting with F-12 medium so that the final concentration of DMSO became 0.1% v/v or lower. After 30-minute incubation under 5% CO2 atmosphere at 37° C., 20 μL of 4 nmol/L IL-1β diluted with F-12 medium was added to each well, and then incubation was performed under a 5% CO2 atmosphere at 37° C. for 12 to 18 hours. The 96-well plate was centrifuged at 300×g at 4° C. for 5 minutes, and then the culture supernatant was collected for use as a sample for IL-6 measurement. The IL-6 produced in the culture supernatant was quantified by the ELISA method (R&D Systems, product number: DY206, DouSet ELISA Development System Human IL-6), and the production inhibition rate was calculated by the following formula. […]

For the compound `CC/C(=C1\c2cc3cnn(C(C)C)c3cc2COc2ccccc21)c1cccc(NS(C)(=O)=O)c1` [Compound 8, (Z)-5-{1-[3-(methanesulfonamide)phenyl]propylidene}-1-isopropyl-5,11-dihydro-1H-indazolo[5,6-e]benzo[b]oxepin], in experiment [1], the MMTV activity is recorded as 22%. For `CC/C(=C1\c2cc3cnn(C(C)C)c3cc2COc2ncccc21)c1cccc(NS(C)(=O)=O)c1` [Compound 25, (Z)-1-isopropyl-5-{1-[3-(methanesulfonamide)phenyl]propylidene}-5,11-dihydro-1H-indazolo[5,6-e]pyrido-[2,3-b]oxepin], the “selectivity for human glucocorticoid receptor over progesterone receptor” value (shortened to “selectivity”) in experiment [2] was “selective binding activity to human glucocorticoid receptors”. For `CC/C(=C1\c2cc3cnn(C4CC4)c3cc2COc2ncccc21)c1cccc(NS(C)(=O)=O)c1` [Compound 34, (Z)-1-cyclopropyl-5-{1-[3-(methanesulfonamide)phenyl]propylidene}-5,11-dihydro-1H-indazolo[5,6-e]pyrido[2,3-b]oxepin], the MMTV activity in experiment [1] was found to be 25%. Also, the “selectivity” value in experiment [2] is reported as “selective binding activity to human glucocorticoid receptors”.

Regarding `CC/C(=C1\c2cc3cnn(-c4ccc(F)cc4)c3cc2COc2ncccc21)c1cccc(NS(C)(=O)=O)c1` [Compound 43, (Z)-1-(4-fluorophenyl)-5-{1-[3-(methanesulfonamide)phenyl]-propylidene}-5,11-dihydro-1H-indazolo[5,6-e]pyrido[2,3-b]oxepin], in experiment [2], the “selectivity” value is given as “selective binding activity to human glucocorticoid receptors”. For `CC/C(C(=O)Nc1nccs1)=C1\c2cc3cnn(-c4ccc(F)cc4)c3cc2COc2ccccc21` [Compound 89, (Z)-1-(4-fluorophenyl)-5-{1-[(thiazole-2-yl)aminocarbonyl]propylidene}-5,11-dihydro-1H-indazolo[5,6-e]benzo[b]oxepin], the inhibition at 0.1 µM in experiment [3] was no less than 80%; in experiment [2] (at a concentration of 100 nmol/L, read-out: glucocorticoid receptor binding inhibitory activity), no less than 80%.

Consider `C[C@@H]1C[C@H]2[C@@H]3CCC4=CC(=O)C=C[C@]4(C)[C@@]3(F)[C@@H](O)C[C@]2(C)[C@@]1(O)C(=O)CO` [dexamethasone, reference compound], for which the MMTV activity in experiment [1] was no less than 100%. Regarding `C[C@]12C=CC(=O)C=C1CC[C@@H]1[C@@H]2[C@@H](O)C[C@@]2(C)[C@H]1CC[C@]2(O)C(=O)CO` [prednisolone, reference compound], in experiment [1], the MMTV activity is reported as no less than 80%.
